The values below come from paper PMC9733678, “Combining drug salt formation with amorphous solid dispersions – a double edged sword” (Journal of Controlled Release, 2022).

The nature of data set [1]: Physical stability, open dish 40 °C/75% RH, monitored by PXRD. The data set is classed as physicochemical. Particulars: neat amorphous salt. The method, then: PXRD patterns of the lumefantrine salts and salt ASDs were collected using an X-ray diffractometer (Rigaku SmartLab, Rigaku Americas, The Woodlands, TX) operating at 40 kV and […] in Bragg–Brentano mode with a Cu-kα radiation source and D/tex ultra detector. Each sample was spread thinly on a glass sample holder. Data was collected from 4 to 40° 2θ using a step size of 0.02° and a scan rate of 4°/min.
To assess the physical stability of the salts and salt ASDs, the samples were stored in open dish accelerated stability conditions of 40 °C/ 75% RH. At pre-determined time intervals, the samples were removed and their PXRD patterns collected.

Data set [2] can be described thus: Water sorption analysis of amorphous lumefantrine salts (DVS). Particulars: neat amorphous salt; for weight gain (water sorption): 95% RH. The data set is classed as physicochemical. As to the method:
Water sorption profiles of the amorphous lumefantrine salts were measured using a DVS Adventure water vapor sorption analyzer (Surface Measurement Systems, Wembley, UK). Powdered salt (5–10 mg) was dried at 0% RH in the instrument for 120 min. After drying, the RH within the chamber was increased from 5% to 95% at a 5% step interval. The equilibrium criterion was a percent weight change over time (% dm/dt) of <0.002%/min for 10 min. Nitrogen was used as the purging gas.

On the set-up of data set [3]: method as in PMID 10468018. The settings on record: amorphous salt; cited from earlier work.
Data set [4] is described as follows: Thermal analysis (DSC), onset glass transition temperature. In kind it is physicochemical. Particulars: for Tg (glass transition temperature) of neat amorphous material: DSC. As to the method:
A Q2000 differential scanning calorimeter (DSC; Q2000, TA Instruments, New Castle, DE) connected to an RCS 90 refrigerated cooling system (TA Instruments, New Castle, DE) was used to analyze the lumefantrine salts and salt ASDs. The thermal properties of lumefantrine free base, lumefantrine free base ASDs, and neat PVPVA were also analyzed. The purging gas used was dry nitrogen (50 mL/min flow rate). Temperature calibration of the DSC was performed using indium and tin, while indium was used for enthalpy calibration. Each sample (5–10 mg) was carefully weighed and sealed in a Tzero aluminum sample pan (TA Instruments, New Castle, DE). The procedure to obtain the sample Tg is as follows: equilibration at −10 °C, followed by heating with a modulation of ±0.636 °C every 40 s at 3 °C/min to the temperature of interest. The samples were then cooled to −10 °C at 10 °C/min and reheated at 5 °C/min. The first heating cycle was used to remove thermal history associated with the samples, while the second cycle was used to obtain the sample Tg.

Details of data set [5]: method as in PMID 32134677. Particulars: PVPVA ASD; cited from earlier work.
On the set-up of data set [6]: method as in PMID 24189249. The settings on record: cited from earlier work.
Details of data set [7]: method as in PMID 23763957. The settings on record: cited from earlier work.

Turning to “Lumefantrine PEG 250 diacid [PEG 250 diacid (2:1) salt]”, the “storage time at which crystalline peaks were observed” value (“storage time” below) in data set [1] was no more than 4 weeks.

For the compound `CCCCN(CCCC)CC(O)c1cc(Cl)cc2c1-c1ccc(Cl)cc1C2=Cc1ccc(Cl)cc1.Cc1ccc(S(=O)(=O)O)cc1` (centres unmarked) [tosylate salt, Lumefantrine tosylate], the “weight gain (water sorption)” value in data set [2] is on record as less than 2%.

With `COc1ccc2c(c1)c(CC(=O)[O-])c(C)n2C(=O)c1ccc(Cl)cc1.[Na+]` [Na indomethacin], in data set [3], the “Tg higher than indomethacin free acid” value is roughly 75 °C.

On to `CC1(C)[C@@H]2CC[C@@]1(CS(=O)(=O)O)C(=O)C2.CCCCN(CCCC)CC(O)c1cc(Cl)cc2c1-c1ccc(Cl)cc1/C2=C/c1ccc(Cl)cc1` (centres unmarked) [camsylate salt, Lumefantrine camsylate], for which the “weight gain (water sorption)” value in data set [2] was less than 2%. Besides, the “storage time” value in data set [1] worked out at 32 weeks.

On to `CCCCN(CCCC)CC(O)c1cc(Cl)cc2c1-c1ccc(Cl)cc1C2=Cc1ccc(Cl)cc1.Cl` (centres unmarked) [HCl salt, Lumefantrine HCl], for which, in data set [2], the “weight gain (water sorption)” value was less than 2%. Moreover, the “time re-crystallization was resisted” value in data set [1] was “at least 16 weeks”.

For `CCCCN(CCCC)CC(O)c1cc(Cl)cc2c1-c1ccc(Cl)cc1/C2=C/c1ccc(Cl)cc1.CCCCN(CCCC)CC(O)c1cc(Cl)cc2c1-c1ccc(Cl)cc1/C2=C/c1ccc(Cl)cc1.O=S(=O)(O)O` (centres unmarked) [sulfate salt, Lumefantrine sulfate], the “weight gain (water sorption)” value in data set [2] amounted to 3.3%. Besides, the “time re-crystallization was resisted” value in data set [1] is “at least 16 weeks”. For the same compound, the “Tg (glass transition temperature) of neat amorphous material” value in data set [4] was 101 °C.

On to “Lumefantrine PEG 250 diacid [PEG 250 diacid (1:1) salt]”, for which, in data set [2], the “appearance after exposure to 95% RH” value is listed as “liquified” and the “weight gain (water sorption)” value is recorded as 6.6%. Moreover, the “increase in weight (water sorption)” value in data set [2] (90% RH) is on record as 5.1%.

On to `CCCCN(CCCC)CC(O)c1cc(Cl)cc2c1-c1ccc(Cl)cc1C2=Cc1ccc(Cl)cc1.O=S(=O)(O)c1ccccc1` (centres unmarked) [besylate salt, Lumefantrine besylate], for which the “weight gain (water sorption)” value in data set [2] is reported as less than 2%. Moreover, the “storage time” value in data set [1] is no more than 4 weeks.

As for `COc1ccc2c(c1)c(CC(=O)O)c(C)n2C(=O)c1ccc(Cl)cc1` [indomethacin], the “limit of congruency (LoC)” value in data set [5] is on record as 10%.

Take `CCCCN(CCCC)CC(O)c1cc(Cl)cc2c1-c1ccc(Cl)cc1/C2=C/c1ccc(Cl)cc1.O=C(O)c1ccccc1` (centres unmarked) [benzoate salt, Lumefantrine benzoate]: the “weight gain (water sorption)” value in data set [2] is less than 2%. Moreover, the “storage time” value in data set [1] is no more than 4 weeks. Moreover, the “elevation in Tg relative to the free base” value in data set [4] (neat amorphous salt) was roughly 10 °C.

Usually log P stands for the decadic logarithm of the partition coefficient of the neutral form, usually between octanol and water. As to `CCCCN(CCCC)CC(O)c1cc(Cl)cc2c1-c1ccc(Cl)cc1/C2=C/c1ccc(Cl)cc1` (centres unmarked) [lumefantrine, reference compound], the “log P” value in data set [6] was 8.34. Further, the “Tg (glass transition temperature) of neat amorphous material” value in data set [4] worked out at 19.7 °C; in data set [4] (listed as free base) it was 20 °C. Also, the “pKa of tertiary amine” value in data set [7] was 8.73.
